Among the data in patent US7674803B2, “Thiazolypiperidine derivatives as MTP inhibitors” (Merck Patent GmbH, priority 2003, dated 2010) are IC50 values, retold here.

Test [1] concerns the target T1, microsomal triglyceride transfer protein (MTP) (Mesocricetus auratus, UniProt P55158).
T1 construct: The supernatant comprising the soluble MTP is dialysed; from tissue; host or cells: golden hamster liver microsomes, deoxycholate-solubilised
T1 sequence (P55158 19-895): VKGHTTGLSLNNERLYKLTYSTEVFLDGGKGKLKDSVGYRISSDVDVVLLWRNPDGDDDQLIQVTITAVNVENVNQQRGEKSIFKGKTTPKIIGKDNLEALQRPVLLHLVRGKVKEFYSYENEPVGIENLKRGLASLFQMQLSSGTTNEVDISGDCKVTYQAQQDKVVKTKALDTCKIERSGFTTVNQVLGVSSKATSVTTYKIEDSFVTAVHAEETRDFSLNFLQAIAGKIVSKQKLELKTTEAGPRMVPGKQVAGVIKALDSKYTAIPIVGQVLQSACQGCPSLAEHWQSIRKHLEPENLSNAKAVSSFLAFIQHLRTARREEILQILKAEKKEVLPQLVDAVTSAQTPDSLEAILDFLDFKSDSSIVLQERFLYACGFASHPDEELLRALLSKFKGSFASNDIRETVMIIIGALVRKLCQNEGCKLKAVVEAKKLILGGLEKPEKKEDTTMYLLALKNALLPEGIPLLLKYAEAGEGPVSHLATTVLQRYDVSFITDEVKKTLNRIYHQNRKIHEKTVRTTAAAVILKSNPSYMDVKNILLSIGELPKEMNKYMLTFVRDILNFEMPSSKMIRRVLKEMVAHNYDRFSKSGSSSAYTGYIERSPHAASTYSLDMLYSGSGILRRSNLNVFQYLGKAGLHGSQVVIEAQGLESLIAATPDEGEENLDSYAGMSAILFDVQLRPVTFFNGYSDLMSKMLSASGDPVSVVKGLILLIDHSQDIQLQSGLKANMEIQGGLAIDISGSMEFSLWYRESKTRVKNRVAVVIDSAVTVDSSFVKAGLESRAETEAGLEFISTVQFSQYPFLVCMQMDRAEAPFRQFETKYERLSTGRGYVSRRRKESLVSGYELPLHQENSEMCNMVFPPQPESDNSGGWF
Briefly: Inhibition of MTP activity (transfer of labelled triglyceride from donor to acceptor particle, SPA). In kind it is biochemical. Particulars: MTP from golden hamster liver microsomes; [3H]-triolein transfer to LDL-biot; incubation 18-24 hours at 37° C.; read-out: IC50, concentration that allows a 50% inhibition of MTP. As to the method:
Analysis of the Inhibition of MTP Activity
The inhibition of the activity of microsomal triglyceride transfer protein (MTP) was tested by using the following operating protocol.
The inhibition of MTP activity with a compound can be quantified by observing the inhibition of the transfer of a labelled triglyceride, from a donor particle to an acceptor particle, in the presence of MTP. The procedure for the preparation of MTP is based on the method by Wetterau and Zilversmit (Biochem. Biophys. Acta (1986) 875, 610). A few grams of golden hamster liver are taken and then rinsed several times in a 250 mM sucrose solution at 0° C. All the following steps proceed at +4° C. A homogenate at a concentration of 50% in 250 mM sucrose is prepared using a Teflon mill and then centrifuged for 10 minutes at 10 000× g at +4° C. The supernatant is then centrifuged at 105 000× g for 75 minutes at +4° C. The supernatant is discarded and the microsomal pellet is taken up in 3 ml (per g of starting liver) of Tris/HCl 150 mM pH 8.0. 1-ml aliquot fractions are stored at −80° C. until the time of use.
After thawing a fraction of microsomes (1 ml), 12 ml of refrigerated Tris/HCl 50 mM, KCl 50 mM, MgCl2 5 mM pH 7.4 buffers and 1.2 ml of deoxycholate (0.54% in water) are added. After incubation for 30 minutes at +4° C. with gentle agitation, the suspension is centrifuged at 105 000× g for 75 minutes. The supernatant comprising the soluble MTP is dialysed against Tris/HCl 150 mM, NaCl 40 mM, EDTA 1 mM, 0.02% sodium azide pH 7.4 buffer (5 times one litre over 2-3 days). The MTP is stored at +4° C., is stable for at least 30 days and is used in unmodified form in the test.
The donor particles (liposomes) are prepared from 208 μL of L-phosphatidylcholine at a concentration of 10 mg/ml in chloroform, and 480 μL of. [3H]-triolein at a concentration of 0.5 mCi/ml in toluene. After stirring, the solution is evaporated under nitrogen, taken up in 6 ml of Tris/HCl 50 mM, KCl 50 mM, MgCl2 5 mM pH 7.4 buffer and incubated in an ultrasound bath for 30 minutes at room temperature. The liposomes are stored at +4° C. and sonicated again for 10 minutes before each use.
The acceptor particles are biotinylated low density lipoproteins (LDL-biot). These particles are supplied by the company Amersham.
The reaction mixture is prepared in untreated 1/2 well white plates (Corning Costar) by addition, in the following order, of: 5 μL of HEPES 50 mM, NaCl 150 mM, BSA 0.1% (w/v), 0.05% sodium azide (w/v), pH 7.4 buffer; 5 μL of liposomes; 5 μL of LDL-biot; 5 μL of test products in DMSO; 5 μL of MTP. After incubation for 18-24 hours at 37° C., the reaction is stopped by adding 100 μL of Amersham SPA (Scintillation Proximity Assay) beads coupled to streptavidin, and the radioactivity is counted using a Top Count (Packard) machine at least one hour later. The inhibition of the transfer of the triglycerides with a compound is reflected by a reduction in the transferred radioactivity.
The results are expressed in terms of the IC50, i.e. the concentration that allows a 50% inhibition of MTP.
In general terms: Liver microsomes are a subcellular fraction often used to study metabolism.

Test [2] has as its system apo B secretion in HepG2 cells. Briefly: Inhibition of apo B secretion in HepG2 cells (sandwich-ELISA). The format is cell-based. Particulars: 24 hours incubation, culture supernatant tested by ELISA specific for human apo B, read-out: IC50, concentration that produces a 50% inhibition of apo B secretion in the HepG2 cells. As to the method:
Analysis of the Reaction of apo B in the HepG2 Human Cell Line:
The activity of a compound according to the invention can be evaluated by measuring the inhibition of apo B secretion in HepG2 cells.
The HepG2 cells (ECACC—No. 85011430) are used as model in the study of the in vitro hepatic secretion of lipoproteins (Dixon J. and Ginsberg H., J. i Lipid. Res., 1993, 34, 167-179).
The HepG2 cells are cultured in Dulbecco's modified Eagle's medium comprising 10% foetal calf serum (DMEM and FBS-Gibco) in 96-well plates under an atmosphere of 5% carbon dioxide for 24 hours (about 70% confluence).
The test compounds are dissolved at a concentration of 2 or 10 mM in dimethyl sulfoxide (DMSO). Serial dilutions (1:3.16) are made in DMSO and are added (1:200—Robot Multimek Beckman) to the growth medium (200 μL) and then finally incubated for 24 hours in the various wells containing the HepG2cells.
The 24-hour culture supernatant diluted to 1:5 (phosphate-buffered saline: PBS comprising 1% bovine serum albumin) is tested according to a sandwich-ELISA method specific for human apo B.
The results are expressed in terms of IC50, i.e. the concentration that produce a 50% inhibition of apo B secretion in the HepG2 cells.

Molecules are shown by their SMILES.

As to `CC(C)N(C(=O)c1csc(C2CCN(C(=O)c3ccccc3-c3ccc(C(F)(F)F)cc3)CC2)n1)C(C#N)c1ccccc1` (stereo not shown) [Example 10], in test [1], the IC50 amounted to 167 nM.

Turning to `CC(C(=O)c1ccccc1)N(C)C(=O)c1csc(C2CCN(C(=O)c3ccccc3-c3ccc(C(F)(F)F)cc3)CC2)n1` (stereo not shown) [Example 4], the IC50 is 720 nM in test [1] and 307 nM in test [2].

Consider `CCN(C(=O)c1csc(C2CCN(C(=O)c3cccc(C)c3-c3ccc(OC(F)(F)F)cc3)CC2)n1)C(C)C(=O)c1ccccc1` (stereo not shown) [Example 1, 2-[1-(6-Methyl-4’-trifluoromethoxybiphenyl-2-carbonyl)piperid-4-yl]thiazol-4-carbonyl[N-ethyl-N-(1-methyl-2-oxo-2-phenylethyl)]amide], for which the figures for the IC50 in test [1] and in test [2] were 51 nM and 20 nM, respectively.

In the case of `C[C@H](C(=O)c1ccccc1)N(C)C(=O)c1csc(C2CCN(C(=O)c3ccccc3-c3ccc(C(F)(F)F)cc3)CC2)n1` [Example 5], the figures for the IC50 in test [1] and in test [2] were 660 nM and 286 nM, respectively.

For the compound `CCN(C(=O)c1csc(C2CCN(C(=O)c3ccccc3-c3ccc(C(F)(F)F)cc3)CC2)n1)C(C#N)c1ccccc1` (stereo not shown) [Example 9], the IC50 was 58 nM in test [1] and 7 nM in test [2].

For `CCN(C(=O)c1csc(C2CCN(C(=O)c3ccccc3-c3ccc(C(F)(F)F)cc3)CC2)n1)C(C)C(=O)c1cccnc1` (stereo not shown) [Example 6], the IC50 is 385 nM in test [1] and 288 nM in test [2].

Turning to `CCN(C(=O)c1csc(C2CCN(C(=O)c3ccccc3-c3ccc(C(F)(F)F)cc3)CC2)n1)C(C)C(=O)c1ccccc1` (stereo not shown) [Example 3], the IC50 amounted to 57 nM in test [1] and 12 nM in test [2].
